# Experimental data taken from patent publication US9872868B2, “Mitochondrially-targeted electrophilic compounds and methods of use for the treatment of cancer” (UAB Research Foundation, priority 2013, dated 2018).
# How the values were obtained:
# [1] = test system: breast cancer cells; conditions: by altering p38 and ERK signaling; cited from earlier work
# [2] = test system: MDA-MB 231 cells; experiment: Mitochondrial bioenergetic assay, Extracellular Flux Analyzer XF-24 (OCR); type: cell-based, human; conditions: 5 μM, 4 h, 0.5% serum containing medium, vs EtOH vehicle
# Procedure: FIG. 3. Bioenergetic response of breast cancer cells to MTE. Panel A. A schematic representation of the mitochondrial bioenergetic assay in an Extracellular Flux Analyzer XF-24 (Seahorse Biosciences). Panel A: Sequential injections of oligomycin, FCCP, and Antimycin A allow determination of the component mitochondrial bioenergetic parameters. Panel B. MDA-MB 231 cells were treated for 4 h in 0.5% serum containing medium with EtOH vehicle, IBTP (5 μM), or BTPP (5 μM) and the OCR measured over time. Panel C. Comparison of basal OCR, ATP-dependent OCR, and reserve capacity (RC) with veh and IBTP treatments. Each point is the mean of a minimum of 3 determinations±SEM, from at least 2 independent experiments. Asterisks represent p<0.05. Recent work has shown that MTEs can modulate cell signaling, and depending upon the specific MTE, may do so without causing overt cellular toxicity to cancer cells or normal cells (12). MTEs are small molecules which consist of a triphenylphosphonium lipophilic cationic moiety and a leaving group such as iodide, which renders the adjacent carbon electrophilic. […] We have previously shown reserve capacity is indicative of the cells' ability to withstand a “second hit” of oxidative stress (7).
# [3] = test system: MCF10A nontumorigenic cells; experiment: Sensitization to doxorubicin in nontumorigenic cells; type: cell-based; conditions: data not shown
# [4] = test system: cancer or noncancer cells; experiment: Cytotoxicity of the MTE alone; type: cell-based; conditions: data not shown
# [5] = test system: HIF-1α; experiment: HIF-1α stabilization by western blotting; type: cell-based, human
# Procedure: FIG. 5. Effects of an MTE on HIF-1α. MDA-MB-231 cells were incubated for 8 h under normoxia or hypoxia and were treated with either 10 μM IBTP or bTPP for 4 h. The lysates were collected and analyzed for HIF-1α stabilization by western blotting.
# However, the mechanism for this decrease in HIF-1α protein is not clear. One possibility is that IBTP inhibits the enzyme within the Krebs cycle, KGDH, that is responsible for converting α-ketoglutarate to succinyl-CoA. Inhibition of this enzyme would cause an increase in α-ketoglutarate, which is a cofactor for the prolyl hydroxylase involved in HIF-1α degradation. We propose that MTEs affect HIF-1α stabilization at least in part, by modulating the activity of KGDH and increasing intracellular levels of α-ketoglutarate. KGDH was previously shown to be among the proteins which form covalent adducts with IBTP (13). Importantly, decreased stabilization of HIF-1α prevents the bioenergetic adaptation to hypoxia in breast cancer cells, as we have recently shown (11)(in press, see Appendix 1).
# [6] = test system: MDA-MB 231 breast cancer cells; experiment: Cell adhesion (reattachment after scraping), viable non-adherent cells counted with trypan blue; type: cell-based, human
# Procedure: (§1) FIG. 7. Two ×10^5 cells/plate were plated on a 6-well plate, 24 hrs after plating cells were starved in 0.5% FCS containing media for another 24 hrs. Cells were then treated for another 24 hrs with increasing doses of IBTP or the non-reactive analog butyl-triphenylphosphonium (BTPP) as a control. Cells were scraped and made into single cell suspension. Cells were counted and plated in 100-mm tissue culture plate. After 24 hrs the media is collected, centrifuged and the viable cells were counted using trypan blue.
# FIG. 2. Two×10^5 cells/plate were plated on a 6-well plate, 24 hrs after plating cells were starved in 0.5% FCS containing media for another 24 hrs.
# as §1, with “Cells” for “FIG. 7. Two ×10^5 cells/plate were plated on a 6-well plate, 24 hrs after plating cells were starved in 0.5% FCS containing media for another 24 hrs. Cells”
# [7] = test system: MDA-MB 231 breast cancer cells; experiment: Cell death and clonogenic survival; type: cell-based
# [8] = test system: aconitase (ACO), isocitrate dehydrogenase (IDH), and α-ketoglutarate dehydrogenase (KGDH); conditions: cited from earlier work
# [9] = cited from earlier work
# [10] = i.p. injection; cited from earlier work
structure (smiles),measurement,setting,value
"CCCCC/C=C/C=C1/C(=O)C=C[C@@H]1C/C=C\CCCC(=O)O [15d-PGJ2, 15 deoxy-prostaglandin J2]",migration of breast cancer cells,[1],inhibits migration
"ICCCC[P+](c1ccccc1)(c1ccccc1)c1ccccc1 [IBTP, iodobutyl triphenylphosphonium iodide]",basal OCR,[2],decrease basal OCR
same,reserve capacity (RC),[2],completely abrogates the reserve capacity
same,sensitization to doxorubicin,[3],did not sensitize
same,cytotoxicity,[4],not cytotoxic
same,constitutive and hypoxia-inducible expression of HIF-1α protein,"[5]; MDA-MB-231, 10 μM, 4 h, normoxia or hypoxia 8 h",inhibits both constitutive and hypoxia-inducible expression of HIF-1α protein
same,basal HIF-1α stabilization,"[5]; MDA-MB-231, data not shown",inhibited basal HIF-1α stabilization both time and dose-dependently
same,reattachment to tissue culture plates after scraping,"[6]; 10 μM, 24 h",failed to reattach
same,inhibition at 10 µM,"[6]; Homo sapiens, MDA-MB-231, read-out: cells whose adhesion is inhibited after detachment",~15%
same,overt cell death,"[7]; 10 μM, 24 h",no evidence of overt cell death
same,clonogenic survival,"[7]; 10 μM, data not shown",significantly decreased clonogenic survival
same,cytotoxicity at higher concentrations,"[7]; concentrations higher than 10 μM, MDA-MB 231 and other cell types",can be cytotoxic
same,covalent adducts with Krebs cycle proteins,[8],forms covalent adducts
COC1=C(OC)C(=O)C(CCCCCCCCCC[P+](c2ccccc2)(c2ccccc2)c2ccccc2)=C(C)C1=O [mitoQ],oral bioavailability,[9]; clinical trials,orally bioavailable
same,tolerability,[9]; clinical trials,well tolerated
same,efficacy in Parkinson's Disease,[9]; phase I clinical trials,not found to be effective
same,dose up to which no toxicity was observed,[10],up to 750 nmol mitoQ/mouse
